Reference: patent US11053242B2, “[9,10-dimethoxy-3-(2-methylpropyl)-1H,2H,3H,4H,6H,7H,11BH-pyrido-[2,1-a]isoquinolin-2-yl]methanol and compounds, compositions and methods relating thereto” (Neurocrine Biosciences, Inc., priority 2015, dated 2021)

Columns and labels:
[1] = biological target: VMAT2 (human platelet homogenate) (Homo sapiens (Human), UniProt Q05940); assay: Human VMAT2 Ki, slightly modified competition binding procedure (Table 11); conditions: 10 nM 3H-dihydrotetrabenazine;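 also: competition binding with 90 min incubation at 25 °C, after which filter-retained radioligand was measured by scintillation counting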
Experimental: Following incubation at 25° C. for 90 minutes, bound radioligand was collected by rapid filtration onto GF/B glass fiber filters using a Unifilter-96 Harvester (PerkinElmer). Filter plates were pre-treated with 0.1% polyethylenimine and allowed to dry overnight, and following harvesting the filter plates were washed with 800 d VMAT2 binding buffer. Bound radioligand was quantified by scintillation counting using a Topcount NXT (PerkinElmer).

[2] = In vitro human intestinal S9 hydrolysis assay (formation of compound 1-1); conditions: human intestinal S9, 1 uM, 37° C., up to 60 minutes
Experimental: Compounds (1 uM) were incubated with pooled intestinal S9 subcellular preparations (0.5 mg/mL total protein) from SD rats and humans without the addition of protease inhibitor phenylmethylsulfonylflouride. Incubations were carried out in a potassium phosphate buffer (50 mM). All concentrations were relative to the final incubation volume of 125 uL. Incubations were conducted at 37° C. for 0, 5, 10, 20, 40 and 60 minutes in a water bath and terminated by rapid mixing with 150 uL of ice-cold acetonitrile containing 1% formic acid. Internal standard was added and proteins were precipitated and removed by centrifugation prior to LC/MS analysis.

Sequence of VMAT2 (human platelet homogenate) (Q05940 whole entry): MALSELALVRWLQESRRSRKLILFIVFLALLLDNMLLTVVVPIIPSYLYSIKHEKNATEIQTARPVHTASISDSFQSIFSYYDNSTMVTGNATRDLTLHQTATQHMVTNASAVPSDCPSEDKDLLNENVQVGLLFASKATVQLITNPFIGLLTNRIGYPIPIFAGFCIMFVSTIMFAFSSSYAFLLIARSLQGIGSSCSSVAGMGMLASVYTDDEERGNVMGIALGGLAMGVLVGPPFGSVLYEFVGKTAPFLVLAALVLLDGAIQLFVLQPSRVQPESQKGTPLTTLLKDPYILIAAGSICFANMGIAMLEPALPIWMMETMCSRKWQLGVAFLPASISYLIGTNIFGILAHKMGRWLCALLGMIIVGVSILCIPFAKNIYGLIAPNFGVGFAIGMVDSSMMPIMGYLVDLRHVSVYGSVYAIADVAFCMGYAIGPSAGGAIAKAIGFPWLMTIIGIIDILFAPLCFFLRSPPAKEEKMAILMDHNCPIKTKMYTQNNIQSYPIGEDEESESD

| SMILES | Ki [1] [nM] | S9 Assay (ability to form compound 1-1) [2] |
| --- | --- | --- |
| COc1cc2c(cc1OC)[C@H]1C[C@@H](COC(=O)N3CC(C(=O)O)C3)[C@H](CC(C)C)CN1CC2 [Compound 5-27, 1-({[(2R,3S,11bR)-9,10-dimethoxy-3-(2-methylpropyl)-1H,2H,3H,4H,6H,7H,11bH-pyrido[2,1-a]isoquinolin-2-yl]methoxy}carbonyl)azetidine-3-carboxylic acid] | > 500 | + |
| COc1cc2c(cc1OC)[C@H]1C[C@@H](COC(=O)NCC(=O)O)[C@H](CC(C)C)CN1CC2 [Compound 5-30] | > 500 | + |
| COc1cc2c(cc1OC)[C@H]1C[C@@H](COC(=O)N(C)C(C(=O)O)C(C)C)[C@H](CC(C)C)CN1CC2 (stereo partly drawn) [Compound 5-32, 2-[({[(2R,3S,11bR)-9,10-dimethoxy-3-(2-methylpropyl)-1H,2H,3H,4H,6H,7H,11bH-pyrido[2,1-a]isoquinolin-2-yl]methoxy}carbonyl)(methyl)amino]-3-methylbutanoic acid] | < 10 | ++ |
| COc1cc2c(cc1OC)[C@H]1C[C@@H](COC(=O)NCC3(CC(=O)O)CCCCC3)[C@H](CC(C)C)CN1CC2 [Compound 5-34, 2-(1-{[({[(2R,3S,11bR)-9,10-dimethoxy-3-(2-methylpropyl)-1H,2H,3H,4H,6H,7H,11bH-pyrido[2,1-a]isoquinolin-2-yl]methoxy}carbonyl)amino]methyl}cyclohexyl)acetic acid] | 10 to 500 | + |
| COc1cc2c(cc1OC)[C@H]1C[C@@H](COC(=O)NC3(C(=O)O)CCCC3)[C@H](CC(C)C)CN1CC2 [Compound 5-39, 1-[({[(2R,3S,11bR)-9,10-dimethoxy-3-(2-methylpropyl)-1H,2H,3H,4H,6H,7H,11bH-pyrido[2,1-a]isoquinolin-2-yl]methoxy}carbonyl)amino]cyclopentane-1-carboxylic acid] | 10 to 500 | +++ |
| COc1cc2c(cc1OC)[C@H]1C[C@@H](COC(=O)NC3C4CCC(C4)C3C(=O)O)[C@H](CC(C)C)CN1CC2 (stereo partly drawn) [Compound 5-40, 3-[({[(2R,3S,11bR)-9,10-dimethoxy-3-(2-methylpropyl)-1H,2H,3H,4H,6H,7H,11bH-pyrido[2,l-a]isoquinolin-2-yl]methoxy}carbonyl)amino]bicyclo[2.2.1]heptane-2-carboxylic acid] | 10 to 500 | + |
| COc1cc2c(cc1OC)[C@H]1C[C@@H](COC(=O)NC3CCCCC3C(=O)O)[C@H](CC(C)C)CN1CC2 (stereo partly drawn) [Compound 5-41, 2-[({[(2R,3S,11bR)-9,10-dimethoxy-3-(2-methylpropyl)-1H,2H,3H,4H,6H,7H,11bH-pyrido[2,1-a]isoquinolin-2-yl]methoxy}carbonyl)amino]cyclohexane-1-carboxylic acid] | 10 to 500 | + |
| COc1cc2c(cc1OC)[C@H]1C[C@@H](COC(=O)N(C)CC(=O)O)[C@H](CC(C)C)CN1CC2 [Compound 5-42, 2-[({[(2R,3S,11bR)-9,10-dimethoxy-3-(2-methylpropyl)-1H,2H,3H,4H,6H,7H,11bH-pyrido[2,1-a]isoquinolin-2-yl]methoxy}carbonyl)(methyl)amino]acetic acid] | 10 to 500 | ++ |
| COc1cc2c(cc1OC)[C@H]1C[C@@H](COC(=O)N3CCC(C(=O)O)(N(C)C)CC3)[C@H](CC(C)C)CN1CC2 [Compound 5-43, 1-({[(2R,3S,11bR)-9,10-dimethoxy-3-(2-methylpropyl)-1H,2H,3H,4H,6H,7H,11bH-pyrido[2,1-a]isoquinolin-2-yl]methoxy}carbonyl)-4-(dimethylamino)piperidine-4-carboxylic acid] | > 500 | + |
| COc1cc2c(cc1OC)[C@H]1C[C@@H](COC(=O)N(C)C(CC(C)C)C(=O)O)[C@H](CC(C)C)CN1CC2 (stereo partly drawn) [Compound 5-46, 2-[({[(2R,3S,11bR)-9,10-dimethoxy-3-(2-methylpropyl)-1H,2H,3H,4H,6H,7H,11bH-pyrido[2,1-a]isoquinolin-2-yl]methoxy}carbonyl)(methyl)amino]-4-methylpentanoic acid] | > 500 | ++ |
| COc1cc2c(cc1OC)[C@H]1C[C@@H](COC(=O)N[C@@H](C)C(=O)O)[C@H](CC(C)C)CN1CC2 [Compound 5-47, (2S)-2-[({[(2R,3S,11bR)-9,10-dimethoxy-3-(2-methylpropyl)-1H,2H,3H,4H,6H,7H,11bH-pyrido[2,1-a]isoquinolin-2-yl]methoxy}carbonyl)amino]propanoic acid] | 10 to 500 | + |
| COc1cc2c(cc1OC)[C@H]1C[C@@H](COC(=O)N3CCC(C(=O)O)C3)[C@H](CC(C)C)CN1CC2 (stereo partly drawn) [Compound 5-49, 1-({[(2R,3S,11bR)-9,10-dimethoxy-3-(2-methylpropyl)-1H,2H,3H,4H,6H,7H,11bH-pyrido[2,1-a]isoquinolin-2-yl]methoxy}carbonyl)pyrrolidine-3-carboxylic acid] | 10 to 500 | + |
| COc1cc2c(cc1OC)[C@H]1C[C@@H](COC(=O)N3CCC(C(=O)O)CC3)[C@H](CC(C)C)CN1CC2 [Compound 5-52, 1-({[(2R,3S,11bR)-9,10-dimethoxy-3-(2-methylpropyl)-1H,2H,3H,4H,6H,7H,11bH-pyrido[2,1-a]isoquinolin-2-yl]methoxy}carbonyl)piperidine-4-carboxylic acid] | > 500 | + |
| COc1cc2c(cc1OC)[C@H]1C[C@@H](COC(=O)N3CCC[C@@H](C(=O)O)C3)[C@H](CC(C)C)CN1CC2 [Compound 5-54, (3R)-1-({[(2R,3S,11bR)-9,10-dimethoxy-3-(2-methylpropyl)-1H,2H,3H,4H,6H,7H,11bH-pyrido[2,1-a]isoquinolin-2-yl]methoxy}carbonyl)piperidine-3-carboxylic acid] | > 500 | + |
| COc1cc2c(cc1OC)[C@H]1C[C@@H](COC(=O)NCC[C@H](O)C(=O)O)[C@H](CC(C)C)CN1CC2 [Compound 5-56, (2S)-4-[({[(2R,3S,11bR)-9,10-dimethoxy-3-(2-methylpropyl)-1H,2H,3H,4H,6H,7H,11bH-pyrido[2,1-a]isoquinolin-2-yl]methoxy}carbonyl)amino]-2-hydroxybutanoic acid] | 10 to 500 | + |
| COc1cc2c(cc1OC)[C@H]1C[C@@H](COC(=O)NCC(C)C(=O)O)[C@H](CC(C)C)CN1CC2 (stereo partly drawn) [Compound 5-57, 3-[({[(2R,3S,11bR)-9,10-dimethoxy-3-(2-methylpropyl)-1H,2H,3H,4H,6H,7H,11bH-pyrido[2,1-a]isoquinolin-2-yl]methoxy}carbonyl)amino]-2-methyIpropanoic acid] | > 500 | + |
| COc1cc2c(cc1OC)[C@H]1C[C@@H](COC(=O)N3CCNCC3)[C@H](CC(C)C)CN1CC2 [Compound 6-1, [(2R,3S,11bR)-9,10-dimethoxy-3-(2-methylpropyl)-1H,2H,3H,4H,6H,7H,11bH-pyrido[2,1-a]isoquinolin-2-yl]methyl piperazine-1-carboxylate] | < 10 | + |
| COc1cc2c(cc1OC)[C@H]1C[C@@H](COC(=O)N3CC4CCC(C3)N4)[C@H](CC(C)C)CN1CC2 [Compound 6-4, [(2R,3S,11bR)-9,10-dimethoxy-3-(2-methylpropyl)-1H,2H,3H,4H,6H,7H,11bH-pyrido[2,1-a]isoquinolin-2-yl]methyl 3,8-diazabicyclo[3.2.1]octane-3-carboxylate] | < 10 | + |
| COc1cc2c(cc1OC)[C@H]1C[C@@H](COC(=O)N3CCNC[C@@H]3C)[C@H](CC(C)C)CN1CC2 [Compound 6-5, [(2R,3S,11bR)-9,10-dimethoxy-3-(2-methylpropyl)-1H,2H,3H,4H,6H,7H,11bH-pyrido[2,1-a]isoquinolin-2-yl]methyl (2S)-2-methylpiperazine-1-carboxylate] | < 10 | ++ |
| COc1cc2c(cc1OC)[C@H]1C[C@@H](COC(=O)N3C[C@@H](C)N[C@@H](C)C3)[C@H](CC(C)C)CN1CC2 [Compound 6-6, [(2R,3S,11bR)-9,10-dimethoxy-3-(2-methylpropyl)-1H,2H,3H,4H,6H,7H,11bH-pyrido[2,1-a]isoquinolin-2-yl]methyl (3R,5S)-3,5-dimethylpiperazine-1-carboxylate] | < 10 | + |
| COc1cc2c(cc1OC)[C@H]1C[C@@H](COC(=O)N3CCNC[C@@H]3CO)[C@H](CC(C)C)CN1CC2 [Compound 6-7, [(2R,3S,11bR)-9,10-dimethoxy-3-(2-methylpropyl)-1H,2H,3H,4H,6H,7H,11bH-pyrido[2,1-a]isoquinolin-2-yl]methyl (2R)-2-(hydroxymethyl)piperazine-1-carboxylate] | < 10 | + |
| COc1cc2c(cc1OC)[C@H]1C[C@@H](COC(=O)N3CCN[C@@H](C(=O)O)C3)[C@H](CC(C)C)CN1CC2 [Compound 6-8, (2R)-4-({[(2R,3S,11bR)-9,10-dimethoxy-3-(2-methylpropyl)-1H,2H,3H,4H,6H,7H,11bH-pyrido[2,1-a]isoquinolin-2-yl]methoxy}carbonyl)piperazine-2-carboxylic acid] | 10 to 500 | + |
| COc1cc2c(cc1OC)[C@H]1C[C@@H](COC(=O)N3C[C@@H]4C[C@H]3CN4)[C@H](CC(C)C)CN1CC2 [Compound 6-10, [(2R,3S,11bR)-9,10-dimethoxy-3-(2-methylpropyl)-1H,2H,3H,4H,6H,7H,11bH-pyrido[2,1-a]isoquinolin-2-yI]methyl (1S,4S)-2,5-diazabicyclo[2.2.1]heptane-2-carboxylate] | < 10 | + |
| COc1cc2c(cc1OC)[C@H]1C[C@@H](COC(=O)N3CC(C)NC(C)C3)[C@H](CC(C)C)CN1CC2 (stereo partly drawn) [Compound 6-11, [(2R,3S,11bR)-9,10-dimethoxy-3-(2-methylpropyl)-1H,2H,3H,4H,6H,7H,11bH-pyrido[2,1-a]isoquinolin-2-yl]methyl 3,5-dimethylpiperazine-1-carboxylate] | < 10 | + |
